Experimental data published in US7332506B2, “Substituted-3-indolyl-4-piperidino-alkyl heterocycles for the treatment of depression” (Wyeth, priority 2002, dated 2008).
Read-outs that look alike come from different tables or passages of the source.

Tests used:
5-HT transporter = biological target: T1, 5-HT transporter (Rattus norvegicus, UniProt P31652); experiment: Rat Brain 3H-Paroxetine Binding Assay (RB 5HT Transporter)
T1 construct: from tissue; host or cells: rat frontal cortex membranes (male Sprague-Dawley rats)
T1 sequence (P31652 whole entry): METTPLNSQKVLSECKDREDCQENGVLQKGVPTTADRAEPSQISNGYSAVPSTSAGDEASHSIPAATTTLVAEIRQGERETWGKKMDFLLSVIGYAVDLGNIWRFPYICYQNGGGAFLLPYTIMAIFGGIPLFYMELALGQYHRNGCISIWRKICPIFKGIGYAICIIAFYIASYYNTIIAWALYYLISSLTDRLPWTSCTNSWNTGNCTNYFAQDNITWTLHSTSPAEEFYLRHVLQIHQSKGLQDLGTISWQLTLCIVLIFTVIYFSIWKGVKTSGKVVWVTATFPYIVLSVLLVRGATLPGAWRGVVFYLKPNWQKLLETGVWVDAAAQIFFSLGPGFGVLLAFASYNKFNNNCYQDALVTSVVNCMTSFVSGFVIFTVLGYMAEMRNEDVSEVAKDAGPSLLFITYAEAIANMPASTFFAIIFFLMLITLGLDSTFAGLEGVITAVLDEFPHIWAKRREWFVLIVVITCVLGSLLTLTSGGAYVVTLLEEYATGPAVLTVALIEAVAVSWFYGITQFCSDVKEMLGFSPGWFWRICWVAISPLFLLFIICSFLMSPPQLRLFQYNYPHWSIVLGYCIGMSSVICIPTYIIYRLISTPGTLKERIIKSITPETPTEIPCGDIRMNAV
Protocol: Rat Brain ^3H-Paroxetine Binding Assay (RB 5HT Transporter):
This assay was used to determine a compound's affinity of the 5-HT transporter.
A protocol similar to that used by Cheetham et. al. (Neuropharmacol. 1993, 32, 737) was used. Briefly, frontal cortical membranes prepared from male S.D. rats were incubated with ^3H-parxetine (0.1 nM) for 60 min. at 25° C. All tubes also contained either vehicle, test compound (one to eight concentrations), or a saturating concentration of fluoxetine (10 μM) to define […]. All reactions are terminated by the addition of ice cold Tris buffer followed by rapid filtration using a Tom Tech filtration device to separate bound from free ^3H-paroxetine. Bound radioactivity was quantitated using a Wallac 1205 Beta Plate® counter. Nonlinear regression analysis was used to determine IC50 values which were converted to Ki values using the method of Cheng and Prusoff (Biochem. Pharmacol. 1973, 22, 3099);

human 5-HT1A receptors = biological target: T2, human 5-HT1A receptors (Homo sapiens, UniProt P08908); experiment: [3H] 8-OH-DPAT displacement from the 5-HT1A serotonin receptor (CHO cells); type: binding; conditions: for inhibition at 1 µM: @ 1000 nM, printed in the 5-HT1A Ki column
T2 construct: expressed in transfected cells; host or cells: CHO cells
T2 sequence (P08908 1-422): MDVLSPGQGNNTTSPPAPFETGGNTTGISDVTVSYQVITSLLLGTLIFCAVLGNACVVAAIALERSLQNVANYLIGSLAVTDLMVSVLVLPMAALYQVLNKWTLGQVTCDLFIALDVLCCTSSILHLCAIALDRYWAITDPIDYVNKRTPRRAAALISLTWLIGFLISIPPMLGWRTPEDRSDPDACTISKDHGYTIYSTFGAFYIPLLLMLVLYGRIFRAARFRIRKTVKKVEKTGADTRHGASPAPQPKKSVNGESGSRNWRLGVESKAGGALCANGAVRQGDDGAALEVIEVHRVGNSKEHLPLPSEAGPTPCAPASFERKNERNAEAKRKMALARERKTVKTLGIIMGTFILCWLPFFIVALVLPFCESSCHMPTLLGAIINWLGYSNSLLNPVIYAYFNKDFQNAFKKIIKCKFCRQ
Excerpt: High affinity for the serotonin 5-HT1A receptor was established by testing the claimed compound's ability to displace [^3H] 8-OH-DPAT (dipropylaminotetralin) from the 5-HT1A serotonin receptor following a modification of the procedure of Hall et al., J. Neurochem. 44, 1685 (1985) which utilizes CHO cells stably transfected with human 5-HT1A receptors.

Human 5-HT Transporter = biological target: T3, Human 5-HT Transporter (Homo sapiens, UniProt P31645); experiment: Inhibition of 3H-5-HT Uptake by cells Possessing the Human 5-HT Transporter (HC 5HT Transporter); type: cell-based
T3 construct: endogenous in cells; host or cells: Jar cells (human carcinoma), treated with staurosporine
T3 sequence (P31645 whole entry): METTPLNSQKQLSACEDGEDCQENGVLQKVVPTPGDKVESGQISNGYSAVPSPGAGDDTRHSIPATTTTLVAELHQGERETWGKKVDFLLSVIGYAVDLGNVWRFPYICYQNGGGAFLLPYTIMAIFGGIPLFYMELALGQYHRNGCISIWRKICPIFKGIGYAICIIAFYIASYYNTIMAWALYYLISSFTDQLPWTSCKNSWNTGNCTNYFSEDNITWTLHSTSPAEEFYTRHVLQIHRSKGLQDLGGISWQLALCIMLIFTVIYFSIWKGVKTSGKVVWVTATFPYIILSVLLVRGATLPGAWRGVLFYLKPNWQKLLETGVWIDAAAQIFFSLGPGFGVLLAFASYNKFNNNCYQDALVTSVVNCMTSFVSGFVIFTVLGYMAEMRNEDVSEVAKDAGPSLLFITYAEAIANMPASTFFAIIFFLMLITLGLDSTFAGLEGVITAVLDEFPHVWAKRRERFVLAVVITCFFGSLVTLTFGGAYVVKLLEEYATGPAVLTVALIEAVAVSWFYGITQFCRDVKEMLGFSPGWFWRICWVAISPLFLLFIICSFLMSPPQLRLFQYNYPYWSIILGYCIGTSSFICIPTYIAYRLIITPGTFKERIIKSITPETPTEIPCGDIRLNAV
Protocol: [Staurosporine greatly increases the expression of the 5-HT-transporter.] On the day of assay, vehicle, excess of fluoxetine, or test compound is added to various wells on the plate. All wells then receive ^3H-5-HT and are incubated at 37° C. for 5 min. The wells are then washed with ice cold 50 mM Tris HCl (pH 7.4) buffer and aspirated to remove free ^3H-5-HT. 25 μl of 0.25 M NaOH is then added to each well to lyse the cells and 75 μl scintillation cocktail (Microscint™ 20) added prior to quantitation on a Packard TopCount machine. Tubes with vehicle represent total possible uptake, radioactivity counted in tubes with fluoxetine represent nonspecific binding/uptake and is subtracted from the total possible uptake to give total possible specific uptake. This nonspecific binding (usual low in number) is then subtracted from the counts obtained in wells with various test compounds (or different concentrations of test drug) to give specific uptake in the presence of drug. Specific uptake is then expressed as a % of control values and is analyzed using nonlinear regression analysis (Prizm) to determine IC50 values. If the compound is active at inhibiting 5-HT uptake, its counts will be close to that obtained with fluoxetine.

[1] = [3H] 8-OH-DPAT displacement, CHO cells with human 5-HT1A receptors, read-out: 5-HT1A Ki
[2] = Jar cells, 3H-5-HT uptake, read-out: HC 5HT Transporter IC50
[3] = rat frontal cortical membranes, 3H-paroxetine, read-out: RB 5HT Transporter Ki

melting point [°C]	IC50 (Human 5-HT Transporter; [2]) [nM]	Ki (5-HT transporter; [3]) [nM]	SMILES	Ki (5-HT transporter) [nM]	Ki (human 5-HT1A receptors; [1]) [nM]	inhibition at 1 µM (human 5-HT1A receptors) [%]	further results
78	1480	116	Cn1cc(C2CCN(CCn3cnc4ccccc4c3=O)CC2)c2ccccc21 [Example 14, 3-{2-[4-(1-methyl-1H-indol-3-yl)-1-piperidinyl]ethyl}4-(3H)-quinazolinone]	–	–	43	–
–	–	–	O=c1c2ccccc2nnn1CCCN1CC=C(c2c[nH]c3ccccc23)CC1 [Example 19, 3-[3-(4-(1H-indol-3-yl)-3,6-dihydro-1(2H)-pyridinyl)propyl]-1,2,3-benzotriazin-4(3H)-one]	0.15	315	–	IC50 (Human 5-HT Transporter): 15.7 nM
170.4	–	–	O=c1n(CCN2CC=C(c3c[nH]c4ccccc34)CC2)nc2ccccn12	–	–	–	–
–	1910	40	O=c1c2cc(Cl)ccc2ncn1CCCN1CCC(c2c[nH]c3ccccc23)CC1 [Example 11, 6-chloro-3-{3-[4-(1H-indol-3-yl)-1-piperidinyl]propyl}-4(3H)-quinazolinone]	–	–	26	–
–	55.3	4.12	COc1cc2ncn(CCCCN3CCC(c4c[nH]c5ccccc45)CC3)c(=O)c2cc1OC [Example 5, 3-{4-[4-(1H-indol-3-yl)-1-piperdinyl]butyl}-6,7-dimethoxy-4(3H)-quinazolinone]	–	86.8	–	–
111.7	–	–	O=c1n(CCCN2CCC(c3c[nH]c4ccccc34)CC2)nc2ccccn12 [Example 23, 2-{3-[4-(1H-Indol-3-yl)-piperidin-1-yl]-propyl}-2H-[1,2,4]triazolo[4,3-a]pyridin-3-one]	–	–	–	–
–	190	16	O=c1c2ccccc2nnn1CCN1CCC(c2c[nH]c3ccccc23)CC1 [Example 17, 3-{2-[4-(1H-indol-3-yl)-1-piperidinyl)ethyl}-1,2,3-benzotriazin-4(3H)-one]	–	119	–	–
–	231	21	Cn1cc(C2CCN(CCn3nnc4ccccc4c3=O)CC2)c2ccccc21 [Example 18, 3-{2-[4-(1-methyl-1H-indol-3-yl)-1-piperidinyl]ethyl}-1,2,3-benzotriazin-4(3H)-one]	–	80.9	–	–
123.2	–	–	O=c1n(CCCCN2CC=C(c3c[nH]c4ccccc34)CC2)nc2ccccn12	–	–	–	–
173.3	–	–	O=c1n(CCCN2CC=C(c3c[nH]c4ccccc34)CC2)nc2ccccn12	–	–	–	–
–	173	11	COc1cc2ncn(CCCN3CCC(c4c[nH]c5ccccc45)CC3)c(=O)c2cc1OC [Example 7, 3-{3-(4-(1H-indol-3-yl)-1-piperidinyl]propyl}-6-7-dimethoxy-4(3H)-quinazolinone]	–	201	–	–
–	–	–	COc1cc2ncn(CCCN3CC=C(c4c[nH]c5ccccc45)CC3)c(=O)c2cc1OC [Example 6, 3-[3-(4-(1H-indol-3-yl)-3,6-dihydro-1(2H)-pyridinyl)propyl]-6-7-dimethoxy-4(3H)-quinazolinone]	0.8	286	–	IC50 (Human 5-HT Transporter): 43.2 nM
–	–	10	O=c1c2ccccc2nnn1CCCN1CCC(c2c[nH]c3ccccc23)CC1 [Example 20, 3-{3-[4-(1H-indol-3-yl)-1-piperidin]propyl}-1,2,3-benzotriazin-4(3H)-one]	–	–	49	–
230	273	36	COc1cc2ncn(CCN3CCC(c4c[nH]c5ccccc45)CC3)c(=O)c2cc1OC [Example 2, 3-{2-[4-(1H-indol-3-yl)-1-piperidinyl]ethyl}-6-7-dimethoxy-4(3H)-quinazolinone]	–	72.1	–	–
–	651	37	O=c1c2ccccc2ncn1CCN1CCC(c2c[nH]c3ccccc23)CC1 [Example 13, 3-{2-[4-(1H-indol-3-yl)-1-piperidinyl]ethyl}-4(3H)-quinazolinone]	–	–	42	–
142	–	–	O=c1n(CCN2CCC(c3c[nH]c4ccccc34)CC2)nc2ccccn12 [Example 25, 2-{2-[4-(1H-Indol-3-yl)-piperidin-1-yl]-ethyl}-2H-[1,2,4]triazolo[4,3-a]pyridin-3-one]	–	–	–	–

SMILES	melting point [°C]	IC50 (Human 5-HT Transporter; [2]) [nM]	Ki (5-HT transporter; [3]) [nM]	Ki (5-HT transporter) [nM]	Ki (human 5-HT1A receptors; [1]) [nM]	inhibition at 1 µM (human 5-HT1A receptors) [%]	further results
Cn1cc(C2=CCN(CCCn3nnc4ccccc4c3=O)CC2)c2ccccc21 [Example 21, 3-[3-(4-(1-methyl-1H-indol-3-yl)-3,6-dihydro-1(2H)-pyridinyl)propyl]-1,2,3-benzotriazin-4(3H)-one]	70	–	–	0.56	631	–	–
O=c1c2cc(Cl)ccc2ncn1CCCN1CC=C(c2c[nH]c3ccccc23)CC1 [Example 10, 6-chloro-3-[3-(4-(1H-indol-3-yl)-3,6-dihydro-1(2H)-pyridinyl)propyl]-4(3H)-quinazolinone]	–	268	–	1.14	–	7	–
COc1cc2ncn(CCCCN3CC=C(c4c[nH]c5ccccc45)CC3)c(=O)c2cc1OC [Example 4, 3-[4-(4-(1H-indol-3-yl)-3,6-dihydro-1(2H)-pyridinyl)butyl]-6-7-dimethoxy-4(3H)-quinazolinone]	–	132	–	1.25	215	–	–
O=c1c2ccccc2nnn1CCN1CC=C(c2c[nH]c3ccccc23)CC1 [Example 16, 3-[2-(4-(1H-indol-3-yl)-3,6-dihydro-1(2H)-pyridinyl)ethyl]-1,2,3-benzotriazin-4(3H)-one]	–	37.5	3.52	–	56.7	–	–
O=c1c2cc(Cl)cc(Br)c2ncn1CCCN1CC=C(c2c[nH]c3ccccc23)CC1 [Example 9, 8-bromo-6-chloro-3-[3-(4-(1H-indol-3-yl)-3,6-dihydro-1(2H)-pyridinyl)propyl]-4(3H)-quinazolinone]	192	–	–	0.31	–	4	–
COc1cc2ncn(CCCN3CC=C(c4c[nH]c5ccc(F)cc45)CC3)c(=O)c2cc1OC [Example 8, 3-[3-(4-(5-fluoro-1H-indol-3-yl)-3,6-dihydro-1(2H)-pyridinyl)propyl]-6-7-dimethoxy-4(3H)-quinazolinone]	120	–	–	1.92	–	31	–
COc1cc2ncn(CCN3CC=C(c4c[nH]c5ccc(F)cc45)CC3)c(=O)c2cc1OC [Example 3, 3-[2-(4-(5-fluoro-1H-indol-3-yl)-3,6-dihydro-1(2H)-pyridinyl)ethyl]-6-7-dimethoxy-4(3H)-quinazolinone]	210	–	4.57	–	82.2	–	–
O=c1c2ccccc2ncn1CCN1CC=C(c2c[nH]c3ccccc23)CC1 [Example 12, 3-[2-(4-(1H-indol-3-yl)-3,6-dihydro-1(2H)-pyridinyl)ethyl]-4(3H)-quinazolinone]	–	88.1	5.5	–	38.2	–	–
O=c1c2cc(F)ccc2ncn1CCN1CC=C(c2c[nH]c3ccccc23)CC1 [Example 15, 6-fluoro-3-{2-[4-(1H-indol-3-yl)-3,6-dihydro-1(2H)-pyridinyl]ethyl}-4(3H)-quinazolinone]	138	159	–	19	–	44	–
COc1cc2ncn(CCN3CC=C(c4c[nH]c5ccccc45)CC3)c(=O)c2cc1OC [Example 1, 3-[2-(4-(1H-indol-3-yl)-3,6-dihydro-1(2H)-pyridinyl)ethyl]-6-7-dimethoxy-4(3H)-quinazolinone]	219	125	–	2.87	–	–	Ki (human 5-HT1A receptors): 83.8 nM
